From PubChem BioAssay (NCI)
Several values for one entry are separate records, joined by “and”; a condition that tells them apart may be missing. Equal values may be shown once.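 48-hour exposure; five concentrations; linearly interpolated endpoints. Here, GI50 denotes the concentration required for 50% inhibition of growth. The concentration for full growth arrest is given as TGI.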

Assays:
Experiment in all cases: NCI anticancer screen, dose series, 48 h
[1] = system: A498 renal
[2] = system: RXF 393 renal
[3] = system: TK-10 renal
[4] = system: HT29 colon
[5] = system: MDA-MB-435
[6] = system: A549 NSCLC
[7] = system: IGROV1 ovarian
[8] = system: MDA-MB-231 breast
[9] = system: LOX IMVI melanoma
[10] = system: RPMI-8226 leukemia

SMILES | GI50 [1] | TGI [1] | GI50 [2] | TGI [2] | GI50 [3] | TGI [3] | GI50 [4] | TGI [4] | GI50 [5] | TGI [5] | GI50 [6] | TGI [6] | GI50 [7] | TGI [7] | GI50 [8] | TGI [8] | GI50 [9] | GI50 [10] | TGI [10] | TGI [9]
CCCCCCCCCCCCCCCC1=NCCN1 | 2.14 µM | 6.14 µM | 1.75 µM | 3.38 µM | 1.84 µM | 3.39 µM | 1.87 µM | 4.45 µM | 1.7 µM | 3.26 µM | 2.06 µM | 4 µM | 1.96 µM | 4.51 µM | 2.23 µM | 4.68 µM |  |  |  | 
Cc1ccc(Nc2nccc(N(C)c3ccc4c(C)n(C)nc4c3)n2)cc1S(N)(=O)=O |  |  | 2.43 µM and 0.634 µM and 2.41 µM |  | 2.05 µM and 9.87 µM | > 10 µM and 77.3 µM | 4.03 µM and 0.49 µM and 4.68 µM | > 100 µM | 3.93 µM and 0.758 µM and 6.37 µM | > 100 µM and > 10 µM and 34.4 µM | 4.63 µM and 3.58 µM and 10 µM | > 100 µM |  | > 100 µM | 3.72 µM and 1.44 µM and 5.88 µM | > 100 µM | 2.88 µM and 0.479 µM and 3.93 µM | 10.8 µM and 2.61 µM and 6.49 µM | > 100 µM and > 10 µM and 31.6 µM | 
CCCCCOCC(O)CO (centres undefined) |  | > 100 µM |  | > 100 µM |  | > 100 µM |  |  |  |  |  | > 100 µM |  | > 100 µM |  |  |  |  |  | > 100 µM
CC1CCN(Cc2ccc(NC(=O)c3cc4ccc5cccnc5c4[nH]3)cc2)CC1 | 2.42 µM | 12.9 µM | 2.18 µM | 6.26 µM | 8.56 µM | 23.2 µM | 3 µM | 14.5 µM | 1.99 µM | 4.24 µM |  |  | 6.15 µM | 54.1 µM | 5.59 µM | 23.2 µM |  | 2.58 µM | 6.99 µM | 
N#CC12CCC1C1CCCCC12N1CCSCC1 (centres undefined) |  | > 100 µM |  | 86.5 µM |  |  |  | > 100 µM |  |  |  | > 100 µM |  | > 100 µM |  |  |  |  | > 100 µM | 
CCC(=O)N1C(=O)OCC1C(C)C (centres undefined) |  | > 100 µM |  | > 100 µM |  | > 100 µM |  | > 100 µM |  |  |  | > 100 µM |  | > 100 µM |  |  |  |  | > 100 µM | > 100 µM
COc1ccc(/C(=N\NC(=O)NN)C(c2ccc(OC)cc2)C2(O)C(=O)Nc3c(Cl)cc(Cl)cc32)cc1 (centres undefined) |  |  |  | > 100 µM |  | > 100 µM |  | > 100 µM |  |  |  | > 100 µM |  | > 100 µM |  |  |  |  | > 100 µM | > 100 µM
N#CC(C(=O)C(=O)Nc1ccccc1)c1ccccc1 (centres undefined) |  |  |  |  |  | > 100 µM |  | > 100 µM |  |  |  | > 100 µM |  | > 100 µM |  |  |  |  | > 100 µM | > 100 µM
COc1ccc2c(c1)c(-c1nc(-c3c[nH]c4ncccc34)cs1)cn2CCCN1CCCCC1 | 1.82 µM | 3.42 µM | 1.59 µM | 3.2 µM | 1.59 µM | 3.03 µM | 1.81 µM | 3.53 µM | 1.7 µM | 3.21 µM | 1.86 µM | 3.53 µM |  |  | 1.66 µM | 3.27 µM | 1.67 µM | 2.19 µM | 4.8 µM | 3.18 µM
COc1cc(/C=C(\NC(=O)c2ccccc2)c2nc3ccc4c(c3[nH]2)C(=O)c2ccccc2C4=O)cc(OC)c1OC |  | > 100 µM |  | 86.8 µM |  | > 100 µM |  | > 100 µM |  |  |  | > 100 µM |  | > 100 µM |  |  |  |  | > 100 µM | > 100 µM
O=C(Nc1cccc2c1C(=O)c1c(NC(=O)c3ccccc3)ccc(Nc3cccc4c3C(=O)c3ccccc3C4=O)c1C2=O)c1ccccc1 |  | > 100 µM |  | > 100 µM |  | > 100 µM |  |  |  |  |  | > 100 µM |  | > 100 µM |  |  |  |  | > 100 µM | 
CC(C)C12Cc3c(ccc4ccccc34)OC1(C)Oc1ccc3ccccc3c1C2 (centres undefined) |  |  |  | > 100 µM |  | > 100 µM |  | > 100 µM |  |  |  | > 100 µM |  | > 100 µM |  |  |  |  |  | > 100 µM
COc1ccc(/C=C2\CN(C(=O)C(Cl)Cl)C/C(=C\c3ccc(OC)cc3)C2=O)cc1 |  |  | 1.11 µM | 2.37 µM |  |  |  |  |  |  | 2.57 µM | > 100 µM |  |  |  |  | 0.251 µM |  |  | 0.766 µM
O=c1c2ccc(S(=O)(=O)c3ccc4c(=O)n5c6ccccc6nc5c5cccc3c45)c3cccc(c32)c2nc3ccccc3n12 |  |  |  | 34.5 µM |  | 50.3 µM |  | > 100 µM |  | > 100 µM |  | > 100 µM |  | 18.2 µM |  | 59.9 µM |  |  | > 100 µM | > 100 µM
COc1cc(-c2nccc3cc(OC)c(OC)cc23)ccc1O |  |  |  |  |  | > 100 µM |  | > 100 µM |  |  |  | > 100 µM |  | > 100 µM |  |  |  |  | > 100 µM | > 100 µM
O=C(O)C[C@@H](Cl)[C@H](NC(=O)OCc1ccccc1)C(=O)O |  | > 100 µM |  | > 100 µM |  | > 100 µM |  | > 100 µM |  |  |  | > 100 µM |  | > 100 µM |  |  |  |  | > 100 µM | > 100 µM
CSCS(=O)C[C@H](CO)NC(=O)/C=C/c1c(C)[nH]c(=O)[nH]c1=O (some centres undefined) | 0.434 µM | 2 µM and 2.06 µM | 1.28 µM | 3.7 µM and 2.97 µM |  | > 29.5 µM | 2.3 µM | 10 µM and 12.2 µM |  |  | 1.99 µM | 8.93 µM and 5.64 µM | 1.78 µM | 9.35 µM and 14.1 µM |  |  | 0.449 µM |  | 6.71 µM | 2.07 µM and 3.87 µM
COc1cc(C2CC(c3cccc(Nc4ccnc5cc(Cl)ccc45)c3)=NN2c2ccc(Cl)cc2)cc(OC)c1OC (centres undefined) | 4.65 µM | 91.5 µM | 2.42 µM | 34.4 µM | 3.27 µM | 19.1 µM |  |  | 0.804 µM | 6.58 µM | 2.72 µM | > 100 µM | 3.89 µM | > 100 µM | 2.97 µM | > 100 µM | 0.647 µM | 3.69 µM | > 100 µM | > 100 µM
COc1cc(OC)c(C(=O)c2cccs2)cc1N |  | > 100 µM |  | > 100 µM |  | > 100 µM |  | > 100 µM |  |  |  | > 100 µM |  | > 100 µM |  |  |  |  | > 100 µM | > 100 µM
Cc1cccc(-n2c(N)c(-c3nc4ccccc4[nH]3)sc2=S)c1 |  | > 100 µM |  | 72.9 µM |  | 68.5 µM |  | 56.6 µM |  |  |  | 71.9 µM |  | 78 µM |  |  |  |  | 57.4 µM | 58 µM
CCC[CH2][Sn]([CH2]CCC)([O]c1cccc2cccnc12)[O]c1cccc2cccnc12 | 1.75 µM | 3.31 µM |  |  | 0.492 µM | 1.66 µM | 0.484 µM | 1.72 µM |  |  | 1.26 µM | 2.92 µM | 1 µM | 2.27 µM |  |  | 0.162 µM |  |  | 0.313 µM
COC(=O)c1ccccc1N(C(=O)c1ccccc1)c1ccccc1C |  | 80.1 µM |  | 92.1 µM |  | > 100 µM |  | > 100 µM |  |  |  | > 100 µM |  | > 100 µM |  |  |  |  |  | > 100 µM
